# According to patent US20240425571A1, “GLYCOPROTEIN A REPETITIONS PREDOMINANT (GARP)-BINDING ANTIBODIES AND USES THEREOF” (OHIO STATE INNOVATION FOUNDATION, priority 2021, published 2024):
# Experiments:
# Baculovirus = Baculovirus (BV) ELISA for non-specific binding
# Description: Baculovirus (BV) ELISA was employed as a preliminary assay to evaluate antibody's potential nonspecific binding risk.
# In Baculovirus (BV) ELISA, the inventor used Rituxan Mab as reference. […] If a clone only has binding on BV, but not on 293 cells, it will be considered as having a low risk of non-specific binding.
# Methods—Baculovirus ELISA. Plates are coated with 50 μl of 1:500 diluted Baculovirus sample in PBS in each well. Plates are kept at 4° C. for overnight. The plates are washed with 300 μL of wash buffer ×3 and 200 μl blocking buffer (1% BSA) is added at RT for 60 min. Plates are washed with 300 μl of wash buffer ×3 and 100 μl of diluted Abs are added at different concentrations/well, followed by RT incubation for 1 hr. Plates are washed with 300 μl of wash buffer ×6 and 100 μl of 1:5000 HRP conjugated second Ab in PBS is added followed by RT incubation for 1 hr. The plates are washed with 300 μl of wash buffer ×6. Developing buffer is added and the plate is read.
# B16-F1 melanomas = assay: B16-F1 melanoma, adoptive T cell therapy with anti-platelet agents; type: in vivo, mouse; details: for anti-tumor effect: aspirin and clopidogrel added to Cy, no T cells; for antigen-specific T cells in blood, ILNs and spleens: aspirin and clopidogrel concurrent with ACT; for efficacy and relapse-free survival: aspirin and clopidogrel plus Cy and adoptive Pmel T cell transfer
# [1] = test system: platinum resistant advanced NSCLC; assay: POPLAR database analysis by LRRC32 (GARP) expression; type: in vivo, human; details: for OS or disease control rate, Atezolizumab vs docetaxel: patients with high GARP expression
# Description: Mechanistically, PD-1 blockade works primarily by targeting the progenitor exhausted population of CD8^+ T cells in the TME (TCF-1 expressing, SlamF6 expressing, PD-1 intermediate to low expressing). These cells deliver the proliferative burst following treatment resulting in increased differentiation to the terminal exhausted population, which is responsible for tumor clearance. […] Thus, we hypothesized GARP expression can contribute to PD-1/L1 ICB resistance. To address this hypothesis, we first mined the POPLAR database which compared PD-L1 blockade Atezolizumab with chemotherapy (i.e., docetaxel) for the platinum resistant advanced NSCLC. In this multi-center international phase II trial, bulk RNAseq data from pre-treatment tumors were available for 86 patients enrolled primarily in the US sites. We divided these patients into GARP high and low expression group with median expression level of LRRC32 transcript as the cutoff. […] To further address this hypothesis, we tested the combination therapy of anti-GARP antibody huPIIO-1 and PD-1 blockade in murine Lewis Lung Carcinoma (LLC) and CMT-167 lung cancer models, both of which are considered immunologically cold tumors with resistance to single agent PD-1 ICB. To do so, the human GARP KI mice were challenged with LCC followed by treatment with 200 μg/mouse of Isotype, huPIIO-1, anti-PD-1 antibody, or a combination of huPIIO-1 and PD-1 every 3 days starting on day 8 post tumor challenge for a total of 4 injections.
# [2] = test system: MB-49 Bladder Cancer cells; assay: MB-49 bladder cancer model in hLRRC32KI mice; details: FTY720 2 mg/kg every two days, 6 doses, with PIIO-1
# Description: A. 1×10^5 MB-49 Bladder Cancer cells were injected s.c. on the right flank of hLRRC32KI mice. […] Representative tumor curve. B. 1×10^5 MB-49 Bladder cancer cells were injected s.c. on the right flank of hLRRC32KI mice. […] Tumors were collected and perform flow cytometry on day 10. Frequency of CD8+ T cells as a proportion of live CD45+ lymphocytes (left). 1×10^5 MB-49 Bladder Cancer cells were injected s.c. on the right flank of hLRRC32KI mice. […] Tumors were collected and perform flow cytometry on day 22. […] C. Frequency of CD25+Foxp3^+ Tregs in CD4+ tumor-infiltrating T cells (left). […] UMAP dimension reduction of tumor-infiltrating CD8+ T cells from B after staining with 33 markers and spectral flow cytometry analysis. Shown is the data gated on live CD45+CD3+CD8+ T cells, subsampled on 5000 cells per sample Unsupervised clustering analysis was done using FlowSOM algorithm with an elbow method approach for cluster number determination. E. Heatmap of D showing expression levels of indicated markers by each cluster. […] Cluster differences were measured by two-tailed Student's t test.
# A. Experimental scheme. […] Overall survival is analyzed by log-rank (Mantel-Cox) test. […]
# A. 1×10^5 MB-49 Bladder Cancer cells were injected s.c. in the right flank of hLRRC32KI mice. […] B. Quantification of panel A. 1×10^5 MB-49 Bladder Cancer cells were injected s.c. on the right flank of hLRRC32KI mice. […]
# [3] = patients with low GARP expression
molecule,measurement,setting,value
Rituxan: Rituxan Mab used as reference in BV ELISA [reference compound],"BV ELISA with purified IgG, raw BV binding data",Baculovirus; Ab. Conc. 0.15625 ug/ml,12.1
same,"BV ELISA with purified IgG, raw BV binding data",Baculovirus; Ab. Conc. 0.3125 ug/ml,13.7
same,"BV ELISA with purified IgG, raw BV binding data",Baculovirus; Ab. Conc. 0.625 ug/ml,13.7
same,"BV ELISA with purified IgG, raw BV binding data",Baculovirus; Ab. Conc. 1.25 ug/ml,13.0
same,"BV ELISA with purified IgG, raw BV binding data",Baculovirus; Ab. Conc. 2.5 ug/ml,17.0
same,"BV ELISA with purified IgG, raw BV binding data",Baculovirus; Ab. Conc. 5 ug/ml,22.7
same,"BV ELISA with purified IgG, raw BV binding data",Baculovirus; Ab. Conc. 10 ug/ml,66.0
same,"BV ELISA with purified IgG, raw BV binding data",Baculovirus; Ab. Conc. 20 ug/ml,98.8
"O=P1(N(CCCl)CCCl)NCCCO1 (stereo not drawn) [Cy, cyclophosphamide]",tumor control,B16-F1 melanomas; Cy alone,failed to control tumors
CC(=O)O[C@@]12CO[C@@H]1C[C@H](O)[C@@]1(C)C(=O)[C@H](O)C3=C(C)[C@@H](OC(=O)[C@H](O)[C@@H](NC(=O)OC(C)(C)C)c4ccccc4)C[C@@](O)([C@@H](OC(=O)c4ccccc4)[C@H]21)C3(C)C [docetaxel],"OS or disease control rate, Atezolizumab vs docetaxel",[1],did not demonstrate any difference
same,disease control rate,[1]; [3],9.5%
Atezolizumab: PD-L1 blockade,"OS or disease control rate, Atezolizumab vs docetaxel",[1],did not demonstrate any difference
same,disease control rate,[1]; [3],68.2%
same,"overall survival HR, Atezolizumab vs docetaxel","[1]; patients with low GARP expression, p=0.086",1.89
CC(=O)Oc1ccccc1C(=O)O [aspirin],anti-tumor effect,B16-F1 melanomas,no anti-tumor effects
same,"antigen-specific T cells in blood, ILNs and spleens",B16-F1 melanomas,sustained at higher numbers
same,efficacy and relapse-free survival,B16-F1 melanomas,highly effective against B16-F1 with relapse-free survival of most mice beyond 3 months
COC(=O)[C@H](c1ccccc1Cl)N1CCc2sccc2C1 [clopidogrel],anti-tumor effect,B16-F1 melanomas,no anti-tumor effects
same,"antigen-specific T cells in blood, ILNs and spleens",B16-F1 melanomas,sustained at higher numbers
same,efficacy and relapse-free survival,B16-F1 melanomas,highly effective against B16-F1 with relapse-free survival of most mice beyond 3 months
CCCCCCCCc1ccc(CCC(N)(CO)CO)cc1 [FTY720],effect of FTY720 on anti-tumor efficacy of PIIO-1 and T cell infiltration,[2],abrogated the anti-tumor efficacy of PIIO-1 and effectively blocked T cell infiltration
